Measured values published in US6482849B1, “Inhibitors of α4β1 mediated cell adhesion” (Tanabe Seiyaku Co., Ltd., priority 1997, dated 2002).
pIC50: −log10 of the molar value. Structures can show the parent of a compound that is named as a salt.

What was measured:
[1] = target: T1, α4β1 integrin (Jurkat T-cell adhesion to IL-1 stimulated endothelial cell monolayers) (Homo sapiens, UniProt P05556+P13612); experiment: Jurkat-Endothelial Cell Adhesion Assay (Jurkat EC); assay type: cell-based; settings: Jurkat cells on IL-1 stimulated HUVEC monolayers
T1 construct: a T-cell line, Jurkat, known to express the α4β1 integrin; host or cells: Jurkat T-cell line
T1 sequence (P13612 34-1032): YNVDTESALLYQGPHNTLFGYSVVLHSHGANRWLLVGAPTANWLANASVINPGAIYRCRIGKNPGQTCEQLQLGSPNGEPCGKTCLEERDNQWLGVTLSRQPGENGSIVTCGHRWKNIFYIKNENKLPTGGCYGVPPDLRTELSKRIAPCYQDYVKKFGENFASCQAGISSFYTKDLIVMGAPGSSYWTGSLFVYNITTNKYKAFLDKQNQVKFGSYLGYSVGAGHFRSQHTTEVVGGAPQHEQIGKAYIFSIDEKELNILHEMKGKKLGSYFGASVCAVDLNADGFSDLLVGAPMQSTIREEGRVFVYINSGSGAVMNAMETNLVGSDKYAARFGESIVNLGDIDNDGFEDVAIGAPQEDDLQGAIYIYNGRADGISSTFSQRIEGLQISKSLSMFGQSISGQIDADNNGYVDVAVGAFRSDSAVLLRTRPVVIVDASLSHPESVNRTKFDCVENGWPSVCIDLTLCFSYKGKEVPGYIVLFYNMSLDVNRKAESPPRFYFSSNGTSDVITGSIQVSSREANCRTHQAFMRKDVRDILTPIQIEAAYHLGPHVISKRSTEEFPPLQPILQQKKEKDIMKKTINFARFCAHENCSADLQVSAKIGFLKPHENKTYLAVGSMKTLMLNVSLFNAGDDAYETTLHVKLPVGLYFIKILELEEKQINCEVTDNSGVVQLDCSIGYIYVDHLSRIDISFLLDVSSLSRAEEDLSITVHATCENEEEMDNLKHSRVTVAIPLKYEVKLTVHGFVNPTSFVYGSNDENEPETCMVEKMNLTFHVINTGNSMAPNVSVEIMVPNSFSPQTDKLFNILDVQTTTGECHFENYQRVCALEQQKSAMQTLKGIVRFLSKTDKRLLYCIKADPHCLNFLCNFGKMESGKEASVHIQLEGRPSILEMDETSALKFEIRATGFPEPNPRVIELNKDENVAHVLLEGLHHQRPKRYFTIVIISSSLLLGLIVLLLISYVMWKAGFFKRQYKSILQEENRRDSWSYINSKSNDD
T1 sequence (P05556 21-798): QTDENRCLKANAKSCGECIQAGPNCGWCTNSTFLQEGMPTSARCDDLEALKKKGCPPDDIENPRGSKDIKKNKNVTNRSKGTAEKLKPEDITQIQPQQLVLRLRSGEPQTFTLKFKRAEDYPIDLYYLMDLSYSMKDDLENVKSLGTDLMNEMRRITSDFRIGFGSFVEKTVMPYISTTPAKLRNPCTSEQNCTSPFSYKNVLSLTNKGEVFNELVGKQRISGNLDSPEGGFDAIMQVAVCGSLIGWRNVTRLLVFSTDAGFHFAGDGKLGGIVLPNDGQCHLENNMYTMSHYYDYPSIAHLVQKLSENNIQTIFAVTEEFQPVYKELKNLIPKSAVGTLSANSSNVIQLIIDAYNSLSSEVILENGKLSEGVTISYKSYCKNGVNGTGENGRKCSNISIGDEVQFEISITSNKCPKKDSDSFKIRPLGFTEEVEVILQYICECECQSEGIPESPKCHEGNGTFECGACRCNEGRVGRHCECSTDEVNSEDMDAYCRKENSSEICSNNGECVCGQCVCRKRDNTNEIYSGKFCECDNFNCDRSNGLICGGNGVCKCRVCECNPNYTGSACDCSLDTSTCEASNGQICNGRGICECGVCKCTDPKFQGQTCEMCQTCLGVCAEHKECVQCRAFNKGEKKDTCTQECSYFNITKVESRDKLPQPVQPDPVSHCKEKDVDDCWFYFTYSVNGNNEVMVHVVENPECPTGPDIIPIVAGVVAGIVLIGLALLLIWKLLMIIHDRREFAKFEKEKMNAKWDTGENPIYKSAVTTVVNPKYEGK
Description: The following assay established the activity of the present compounds in inhibiting β1-mediated cell adhesion in a representative in vitro system. This assay measures the adhesive interactions of a T-cell line, Jurkat, known to express the α4β1 integrin, to endothelial monolayers in the presence of test compounds. The test compounds were added in increasing concentrations to T-cells and then the T-cell compound mixture was added to IL-1 stimulated endothelial cell monolayers. The plates were incubated, washed and the percentage of attached cells was quantitated. […] Human umbilical vein endothelial cells were purchased from Clonetics (San Diego, Calif.) at passage number 2. The cells were grown on 0.5% porcine skin gelatin pre-coated flasks (Sigma, St. Louis Mo.) in EGM-UV media (Clonetics, San Diego, Calif.) supplemented with 10% fetal bovine serum. Cells are refed every 2-3 days reaching confluence by day 4 to 6. […] The endothelial cells are not used following passage 6. Am The T-cell line Jurkat was obtained from American Type Tissue Culture Collection (Rockville, Md.) and the cells were cultured in RPMI containing 10% fetal calf serum. The cells were washed twice in Hank's Balanced Salt Solution (HBSS) and resuspended in Dulbecco's […] Eagle's Media (DMEM) containing 2.5 mg/ml Human Serum Albumin (HSA). Jurkat cells (1×10^6 cells/ml) were stained with 10 ng/ml BCECF-AM z z (Molecular Probes, Eugene, Ore.)) in HBSS without phenol red. The cells were loaded with BCECF for 60 minutes in the dark at 37° C., washed 2 times, and resusupended in DMEM-HSA solution.
Confluent endothelial monolayers, grown in 96-well tissue culture plates, were stimulated for 4 hr. at 37° C. with 0.1 ng/ml (˜50 U/ml) recombinant IL-1 (Amgen, Thousand Oaks, Calif.). Following this incubation, the monolayers were washed twice with HBSS and 0.1 ml of DMEM-HSA solution was added. Jurkat cells (5×10^5 cells) were combined with the appropriate concentration of the test compound and 0.1 ml of the Jurkat cell-compound mixture was added to the endothelial cell monolayers. Generally, 100, 20, 5 and 1.25 μM compound concentrations were tested. […] The plates were placed on ice for 5 minutes to allow for Jurkat cell settling and the plates were incubated at 37° C. for 20 minutes. Following this incubation, the monolayers were washed twice with PBS containing 1 mM calcium chloride and 1 mM magnesium chloride and the plates were read using a Millipore Cytofluor 2300 (Marlboro, Mass.). Fluorescence in each well was measured as Arbitrary Fluorescence Units and percent adhesion in the absence of compound was adjusted to 100% and the % adhesion in the presence of compound was calculated. Monolayers were also fixed in 3% paraformaldehyde and evaluated microscopically to verify the adhesion. This procedure is a modification of a previously published method (Cardarelli et al., J. Biol. Chem. 269:18668-18673 (1994)).

[2] = target: T2, α4β1 integrin (Jurkat cell adhesion to immobilized CS-1 derived peptide CLHPGEILDVPST) (Homo sapiens, UniProt P05556+P13612); experiment: Jurkat-CS-1 Assay; assay type: cell-based; settings: Jurkat cells on CS-1 peptide coated plates
T2 construct: 100 μl of Jurkat cells (2.5×10^6 cells/ml) in DMEM plus BSA; endogenous in cells; host or cells: Jurkat T-cell line
T2 sequence (P13612 34-1032): as the sequence (P13612 34-1032) above
T2 sequence (P05556 21-798): as the sequence (P05556 21-798) above
Description: The CS-1 derived peptide, CLHPGEILDVPST, and the scrambled control peptide, CLHGPIELVSDPT, were synthesized on a Beckman 990 synthesizer using t-Boc methodology. The peptides were immobilized onto microtiter plates using the heterobifunctional crosslinker 3-(2-pyridyldithio)propionic acid N-hydroxysuccinimide ester (SPDP) as reported by Pierschbacher et al., Proc. Natl. Acad. USA, 80:1224-1227 (1983). Microtiter plates were coated with 20 μg/ml HSA for 2 hr. at room temperature, washed once with PBS and derivatized with 10 μg/ml SPDP for 1 hr. After washing, 100 μl of a 100 μg/ml cysteine containing peptide solution which had been recently dissolved was added to the wells and allowed to crosslink to the plates overnight at 4° C. Unbound peptide was removed from plates by washing with PBS. To block non-reacted sites, the plates are coated with 100 μl of a 2.5 mg/ml BSA solution in PBS for 1 hr. at 37° C. 100 μl of Jurkat cells (2.5×10^6 cells/ml) in DMEM plus BSA (2.5 mg/ml) was mixed with an appropriate concentration of the compound to be tested and the mixture was added to peptide coated dishes and incubated for 1 hr. at 37° C. Generally 100, 20, 5 and 1.25 μM concentrations of the compound were tested.
Following this incubation the plates were washed once with PBS and the attached cells were fixed with 3% paraformaldehyde in PBS and stained with 0.5% toluidine blue in 3.7% formaldehyde. The cells were stained overnight at room temperature and the optical density at 590 nm of toluidine blue stained cells was determined using a vertical pathway spectrophotometer to quantitate attachment (VMAX Kinetic Microplate Reader, Molecular Devices, Menlo Park, Calif.). This procedure is a modification of a previously published method (Cardarelli et al, J. Biol. Chem., 269:18668-18673 (1994) and Cardarelli et al, Proc. Natl. Acad. Sci. USA, 83:2647-2651 (1986)).

Row | SMILES | melting point | pIC50 [1] | pIC50 [2]
1 | CC(C)(C)OC(=O)[C@]1(C)CC[C@H](C(=O)N[C@@H](Cc2cn(Cc3ccc(Cl)c(Cl)c3)cn2)C(=O)O)C1(C)C [Example 202, (1S-cis)-1-[(3,4-Dichlorophenyl)methyl]-N-[[3-[(1,1-dimethylethoxy)carbonyl]-2,2,3-trimethylcyclopentyl]carbonyl]-L-histidine] | 234 to 235 °C | – | –
2 | CC1(C)[C@H](C(=O)O)CC[C@@]1(C)C(=O)N[C@@H](Cc1ccc(NC(=O)c2c(Cl)cccc2Cl)cc1)C(=O)O [Example 250, (1R-trans)-N-[(3-Carboxy-1,2,2-trimethylcyclopentyl)carbonyl]-4-[(2,6-dichlorobenzoyl)amino]-L-phenylalanine] | 148 to 155 °C | – | –
3 | CC1(C)[C@@H](C(=O)N[C@@H](Cc2ccc(NC(=O)c3c(Cl)cccc3Cl)c(Br)c2)C(=O)O)CC[C@@]1(C)C(=O)O [Example 252, (1S-cis)-N-[(3-Carboxy-2,2,3-trimethylcyclopentyl)carbonyl]-3-bromo-4-[(2,6-dichlorobenzoyl)amino]-L-phenylalanine] | 150 to 152 °C | – | –
4 | CC1(C)[C@@H](C(=O)O)CC[C@]1(C)C(=O)N[C@H](Cc1ccc(NC(=O)c2c(Cl)cccc2Cl)cc1)C(=O)O [Example 246, (1S-trans)-N-[(3-Carboxy-1,2,2-trimethylcyclopentyl)carbonyl]-4-[(2,6-dichlorobenzoyl)amino]-D-phenylalanine] | 145 to 150 °C | – | –
5 | CC1(C)[C@@H](C(=O)O)CC[C@@]1(C)C(=O)N[C@H](CC(=O)O)Cc1ccc(OCc2c(Cl)cccc2Cl)cc1 (relative stereo) [Example 204, [1R-[1α(S*),3α]]-β-[[(3-Carboxy-1,2,2-trimethylcyclopentyl)carbonyl]amino]-4-[(2,6-dichlorophenyl)methoxy]-benzenebutanoic acid] | 106 to 108 °C | – | –
6 | CC1(C)[C@@H](C(=O)N[C@H](Cc2ccc(NC(=O)c3c(Cl)cccc3Cl)cc2)C(=O)O)CC[C@@]1(C)C(=O)O [Example 237, (1S-cis)-N-[(3-Carboxy-2,2,3-trimethylcyclopentyl)carbonyl]-4-[(2,6-dichlorobenzoyl)amino]-D-phenylalanine] | 263 to 267 °C | – | –
7 | CC1(C)[C@@H](C(=O)N[C@@H](Cc2cccc(OCc3ccccc3)c2)C(=O)O)CC[C@@]1(C)C(=O)O [Example 46] | 88 to 90 °C | 5.30 to 6.10 | –
8 | CC1(C)[C@@H](C(=O)N[C@@H](Cc2ccc(NC(=O)c3c(Cl)cccc3Cl)cc2)C(=O)O)CC[C@@]1(C)/C=C/C(=O)O [Example 182, [1S-[1α,3α(E)]]-N-[[3-(2-Carboxyethenyl)-2,2,3-trimethylcyclopentyl]carbonyl]-4-[(2,6-dichlorobenzoyl)amino]-L-phenylalanine disodium salt] | – | ≥ 6.10 | ≥ 7.10
9 | CC1(C)[C@@H](C(=O)O)CC[C@@]1(C)C(=O)N[C@@H](Cc1ccc(OCc2c(Cl)cccc2Cl)cc1)C(=O)O [Example 186, (1R-cis)-N-[(3-Carboxy-1,2,2-trimethylcyclopentyl)carbonyl]-O-[(2,6-dichlorophenyl)methyl]-L-tyrosine] | – | 5.30 to 6.10 | 6.30 to 7.10
10 | CC1(C)[C@@H](C(=O)N[C@@H](Cc2ccc(C(=O)Nc3c(Cl)cc(Cl)cc3Cl)cc2)C(=O)O)CC[C@@]1(C)C(=O)O [Example 223] | – | ≥ 6.10 | ≥ 7.10

Second part, the molecule after the results:

Row | melting point | pIC50 [1] | pIC50 [2] | SMILES
11 | 241 to 244 °C | 5.00 to 5.30 | – | CC(=O)N(Cc1c(Cl)cccc1Cl)c1ccc(C[C@H](NC(=O)[C@H]2CC[C@@](C)(C(=O)O)C2(C)C)C(=O)O)cc1 [Example 170]
12 | 70 to 72 °C | – | 6.00 to 6.30 | CONC(=O)[C@]1(C)CC[C@H](C(=O)N[C@@H](Cc2ccc(OCc3c(Cl)cccc3Cl)cc2)C(=O)O)C1(C)C [Example 163]
13 | 146 to 148 °C | 5.30 to 6.10 | – | CC(C)CC(=O)Nc1ccc(C[C@H](NC(=O)[C@H]2CC[C@@](C)(C(=O)O)C2(C)C)C(=O)O)cc1 [Example 134]
14 | 212 to 214 °C | 5.30 to 6.10 | – | CCCCCCCc1ccc(C(=O)Nc2ccc(C[C@H](NC(=O)[C@H]3CC[C@@](C)(C(=O)O)C3(C)C)C(=O)O)cc2)cc1 [Example 122]
15 | 238 to 240 °C | 5.00 to 5.30 | – | CC(=O)Nc1ccc(C[C@H](NC(=O)[C@H]2CC[C@@](C)(C(=O)O)C2(C)C)C(=O)O)cc1 [Example 79]
16 | 151 to 154 °C | 5.30 to 6.10 | – | CC1(C)[C@@H](C(=O)N[C@@H](Cc2ccc(NC(=O)C3CCCCC3)cc2)C(=O)O)CC[C@@]1(C)C(=O)O [Example 75]
17 | 232 to 233 °C | – | – | COC(=O)[C@H](Cc1ccc(NC(=O)c2c(Cl)cccc2Cl)cc1)NC(=O)[C@H]1CC[C@@](C)(C(=O)NCC(N)=O)C1(C)C [Example 233, (1S-cis)-N-[[3-[[(2-Amino-2-oxoethyl)amino]carbonyl]-2,2,3-trimethylcyclopentyl]carbonyl]-4-[(2,6-dichlorobenzoyl)amino]-L-phenylalanine methyl ester]
18 | 152 to 157 °C | – | – | CC1(C)[C@H](C(=O)O)CC[C@]1(C)C(=O)N[C@@H](Cc1ccc(NC(=O)c2c(Cl)cccc2Cl)cc1)C(=O)O [Example 244, (1S-cis)-N-[(3-Carboxy-1,2,2-trimethylcyclopentyl)carbonyl]-4-[(2,6-dichlorobenzoyl)amino]-L-phenylalanine]
19 | 146 to 149 °C | – | 6.00 to 6.30 | CC1(C)[C@@H](C(=O)N[C@@H](Cc2ccc(OCc3ccccc3)cc2)C(=O)O)CC[C@@]1(C)C(=O)O [Example 2, (1S-cis)-N-[(3-Carboxy-2,2,3-trimethylcyclopentyl)carbonyl]-O-(phenylmethyl)-L-tyrosine]
20 | 174 to 175 °C (dec.) | – | – | COC(=O)C(Cc1cn(Cc2ccc(Cl)c(Cl)c2)cn1)NC(=O)[C@H]1CC[C@@](C)(C(=O)O)C1(C)C (stereo in doubt) [Example 3, (1S-cis)-N-[(3-Carboxy-2,2,3-trimethylcyclopentyl)carbonyl]-1-[(3,4-dichlorophenyl)methyl]-L-histidine methyl ester]
21 | 94 to 97 °C | 5.00 to 5.30 | – | CCCCC(CC)COc1ccc(CC(NC(=O)C2CCC(C)(C(=O)O)C2(C)C)C(=O)O)cc1 (stereo not shown) [Example 14]
22 | – | 5.00 to 5.30 | 6.00 to 6.30 | CC1(C)[C@@H](C(=O)N[C@@H](Cc2ccc(C(=O)Nc3ccc(Cl)cc3)cc2)C(=O)O)CC[C@@]1(C)C(=O)O [Example 221]
23 | – | 5.30 to 6.10 | 6.30 to 7.10 | CC1(C)[C@@H](C(=O)N[C@@H](Cc2cn(Cc3ccc4ccccc4c3)cn2)C(=O)O)CC[C@@]1(C)C(=O)O [Example 38]
